Test results published in PubChem BioAssay AID1745844 (Carcinogenic Potency Database (CPDB), 2022).
Several values for one entry are separate records, joined by “and”; a condition that tells them apart may be missing. Equal entries are not always repeated. Activity calls are given as the source filed them. The rule behind the calls is not given here.

System: rodent lifetime carcinogenesis bioassay, tumor incidence TD50
Experiment: chronic cancer bioassays in animals – CPDB, compiled studies (AID 1745844)

CCC1(c2ccccc2)C(=O)NCNC1=O
TD50 (mouse, strain B6C3F1, females, in feed, site: any site (literature study), lesion: several types, types named in the paper, dosed 101 weeks, study length 104 weeks): 163 mg/kg/day | TD50 (mouse, strain B6C3F1, females, in feed, site: liver, lesion: hepatoblastoma + hepatocellular carcinoma, dosed 101 weeks, study length 104 weeks): 98.7 mg/kg/day | TD50 (mouse, strain B6C3F1, females, in feed, site: liver, lesion: hepatoblastoma, dosed 101 weeks, study length 104 weeks): 1390 mg/kg/day | TD50 (mouse, strain B6C3F1, females, in feed, site: liver, lesion: hepatocellular adenoma + hepatoblastoma + hepatocellular carcinoma, dosed 101 weeks, study length 104 weeks): 42.8 mg/kg/day | TD50 (mouse, strain B6C3F1, females, in feed, site: liver, lesion: hepatocellular adenoma + hepatocellular carcinoma, dosed 101 weeks, study length 104 weeks): 28.9 mg/kg/day | TD50 (mouse, strain B6C3F1, females, in feed, site: liver, lesion: hepatocellular adenoma, dosed 101 weeks, study length 104 weeks): 27.7 mg/kg/day | TD50 (mouse, strain B6C3F1, females, in feed, site: liver, lesion: hepatocellular carcinoma, dosed 101 weeks, study length 104 weeks): 97.3 mg/kg/day | TD50 (mouse, strain B6C3F1, males, in feed, site: all sites, lesion: histiocytic sarcoma, dosed 101 weeks, study length 103 weeks): 1150 mg/kg/day | TD50 (mouse, strain B6C3F1, males, in feed, site: any site (literature study), lesion: several types, types named in the paper, dosed 101 weeks, study length 103 weeks): 77.6 mg/kg/day | TD50 (mouse, strain B6C3F1, males, in feed, site: liver + thyroid gland, lesion: hepatocellular adenoma + hepatoblastoma + hepatocellular carcinoma + follicular-cell adenoma, dosed 101 weeks, study length 103 weeks): 60.2 mg/kg/day | TD50 (mouse, strain B6C3F1, males, in feed, site: liver, lesion: hepatoblastoma + hepatocellular carcinoma, dosed 101 weeks, study length 103 weeks): 24.7 mg/kg/day | TD50 (mouse, strain B6C3F1, males, in feed, site: liver, lesion: hepatoblastoma, dosed 101 weeks, study length 103 weeks): 52.5 mg/kg/day | TD50 (mouse, strain B6C3F1, males, in feed, site: liver, lesion: hepatocellular adenoma + hepatoblastoma + hepatocellular carcinoma, dosed 101 weeks, study length 103 weeks): 60.2 mg/kg/day | TD50 (mouse, strain B6C3F1, males, in feed, site: liver, lesion: hepatocellular adenoma + hepatocellular carcinoma, dosed 101 weeks, study length 103 weeks): 60.4 mg/kg/day | TD50 (mouse, strain B6C3F1, males, in feed, site: liver, lesion: hepatocellular adenoma, dosed 101 weeks, study length 103 weeks): 46.8 mg/kg/day | TD50 (mouse, strain B6C3F1, males, in feed, site: liver, lesion: hepatocellular carcinoma, dosed 101 weeks, study length 103 weeks): 55 mg/kg/day | TD50 (mouse, strain B6C3F1, males, in feed, site: lung, lesion: alveolar/bronchiolar adenoma + alveolar/bronchiolar carcinoma, dosed 101 weeks, study length 103 weeks): 1760 mg/kg/day | TD50 (mouse, strain B6C3F1, males, in feed, site: thyroid gland, lesion: follicular-cell adenoma, dosed 101 weeks, study length 103 weeks): 349 mg/kg/day | carcinogen call (rat, strain Fischer 344, females, in feed, site: any site (literature study), lesion: several types, types named in the paper, dosed 101 weeks, study length 103 weeks): negative (inactive) | TD50 (rat, strain Fischer 344, females, in feed, site: liver, lesion: hepatocellular adenoma + hepatoblastoma + hepatocellular carcinoma, dosed 101 weeks, study length 103 weeks): 4050 mg/kg/day | TD50 (rat, strain Fischer 344, males, in feed, site: adrenal medulla, lesion: pheochromocytoma benign, bilateral + pheochromocytoma, benign, dosed 99 weeks, study length 103 weeks): 20.8 mg/kg/day | TD50 (rat, strain Fischer 344, males, in feed, site: adrenal medulla, lesion: pheochromocytoma benign, bilateral + pheochromocytoma, malignant + pheochromocytoma, benign, dosed 99 weeks, study length 103 weeks): 20.8 mg/kg/day | TD50 (rat, strain Fischer 344, males, in feed, site: any site (literature study), lesion: several types, types named in the paper, dosed 99 weeks, study length 103 weeks): 15.4 mg/kg/day | TD50 (rat, strain Fischer 344, males, in feed, site: kidney, lesion: tubule adenoma + tubule carcinoma, dosed 99 weeks, study length 103 weeks): 522 mg/kg/day and 967 mg/kg/day | TD50 (rat, strain Fischer 344, males, in feed, site: kidney, lesion: tubule adenoma, dosed 99 weeks, study length 103 weeks): 1280 mg/kg/day and 1290 mg/kg/day | TD50 (rat, strain Fischer 344, males, in feed, site: liver, lesion: hepatocellular adenoma + hepatoblastoma + hepatocellular carcinoma, dosed 99 weeks, study length 103 weeks): 138 mg/kg/day | TD50 (rat, strain Fischer 344, males, in feed, site: testis, lesion: interstitial-cell adenoma, bilateral + interstitial-cell adenoma, dosed 99 weeks, study length 103 weeks): 8.15 mg/kg/day | TD50 (rat, strain Fischer 344, males, in feed, site: thyroid gland, lesion: follicular-cell adenoma + follicular-cell carcinoma, dosed 99 weeks, study length 103 weeks): 80.2 mg/kg/day | TD50 (rat, strain Fischer 344, males, in feed, site: thyroid gland, lesion: follicular-cell adenoma, dosed 99 weeks, study length 103 weeks): 174 mg/kg/day

COc1ccc(CCN2CCC(Nc3nc4ccccc4n3Cc3ccc(F)cc3)CC2)cc1
TD50 (mouse, strain Swiss, females, in feed, site: any site (literature study), lesion: several types, types named in the paper, dosed 78 weeks, study length 78 weeks): 164 mg/kg/day (inactive) | carcinogen call (mouse, strain Swiss, females, in feed, site: liver, lesion: hepatocellular adenoma, dosed 78 weeks, study length 78 weeks): negative (inactive) | carcinogen call (mouse, strain Swiss, females, in feed, site: lung, lesion: one or several types, types not named, dosed 78 weeks, study length 78 weeks): negative (inactive) | carcinogen call (mouse, strain Swiss, males, in feed, site: any site (literature study), lesion: several types, types named in the paper, dosed 78 weeks, study length 78 weeks): negative (inactive) | TD50 (mouse, strain Swiss, males, in feed, site: liver, lesion: hepatocellular adenoma, dosed 78 weeks, study length 78 weeks): 8770 mg/kg/day (inactive) | TD50 (mouse, strain Swiss, males, in feed, site: liver, lesion: hepatocellular carcinoma, dosed 78 weeks, study length 78 weeks): 788 mg/kg/day (inactive) | carcinogen call (mouse, strain Swiss, males, in feed, site: lung, lesion: one or several types, types not named, dosed 78 weeks, study length 78 weeks): negative (inactive) | carcinogen call (rat, strain Charles River Crl:COBS(WI)BR, females, in feed, site: any site (literature study), lesion: several types, types named in the paper, dosed 105 weeks, study length 105 weeks): negative (inactive) | TD50 (rat, strain Charles River Crl:COBS(WI)BR, females, in feed, site: liver, lesion: neoplastic nodule, dosed 105 weeks, study length 105 weeks): 309 mg/kg/day (inactive) | TD50 (rat, strain Charles River Crl:COBS(WI)BR, males, in feed, site: any site (literature study), lesion: several types, types named in the paper, dosed 105 weeks, study length 105 weeks): 32.5 mg/kg/day (inactive) | carcinogen call (rat, strain Charles River Crl:COBS(WI)BR, males, in feed, site: liver, lesion: neoplastic nodule, dosed 105 weeks, study length 105 weeks): negative (inactive)

O=c1[nH]nc(-c2ccc([N+](=O)[O-])o2)o1
TD50 (rat, strain Sprague-Dawley, females, in feed, site: any site (literature study), lesion: several types, types named in the paper, dosed 46 weeks, study length 66 weeks): 8.61 mg/kg/day | TD50 (rat, strain Sprague-Dawley, females, in feed, site: mammary gland, lesion: adenocarcinoma, dosed 46 weeks, study length 66 weeks): 31.2 mg/kg/day | TD50 (rat, strain Sprague-Dawley, females, in feed, site: mammary gland, lesion: several types, types named in the paper, dosed 46 weeks, study length 66 weeks): 8.61 mg/kg/day

C/C=C(/C)C(=O)O[C@H]1CCN2CC=C(COC(=O)[C@@](O)([C@H](C)OC)C(C)(C)O)[C@H]12
TD50 (rat, strain Fischer 344, females, in feed, site: any site (literature study), lesion: several types, types named in the paper, dosed 92 weeks, study length 104 weeks): 0.102 mg/kg/day | TD50 (rat, strain Fischer 344, females, in feed, site: liver + multiple organs, lesion: adenoma, NOS + angiosarcoma + hepatocellular carcinoma + granulocytic leukemia + leukemia + lymphocytic leukemia + lymphoma + undiffer, dosed 92 weeks, study length 104 weeks): 0.141 mg/kg/day | TD50 (rat, strain Fischer 344, females, in feed, site: liver, lesion: adenoma, NOS + hepatocellular carcinoma, dosed 92 weeks, study length 104 weeks): 0.453 mg/kg/day | TD50 (rat, strain Fischer 344, females, in feed, site: liver, lesion: angiosarcoma, dosed 92 weeks, study length 104 weeks): 0.355 mg/kg/day | TD50 (rat, strain Fischer 344, females, in feed, site: liver, lesion: hepatocellular adenoma + hepatocellular carcinoma + neoplastic nodule, dosed 92 weeks, study length 104 weeks): 22.7 mg/kg/day | TD50 (rat, strain Fischer 344, females, in feed, site: multiple organs, lesion: granulocytic leukemia + lymphocytic leukemia + undifferentiated leukemia, dosed 92 weeks, study length 104 weeks): 0.387 mg/kg/day | TD50 (rat, strain Fischer 344, females, in feed, site: multiple organs, lesion: leukemia + lymphoma, dosed 92 weeks, study length 104 weeks): 0.325 mg/kg/day | TD50 (rat, strain Fischer 344, males, i.p., site: any site (literature study), lesion: several types, types named in the paper, dosed 56 weeks, study length 76 weeks): 0.152 mg/kg/day | TD50 (rat, strain Fischer 344, males, i.p., site: liver, lesion: hepatocellular carcinoma, dosed 56 weeks, study length 76 weeks): 0.397 mg/kg/day | TD50 (rat, strain Fischer 344, males, i.p., site: liver, lesion: several types, types named in the paper, dosed 56 weeks, study length 76 weeks): 0.341 mg/kg/day | TD50 (rat, strain Fischer 344, males, i.p., site: lung, lesion: adenoma, dosed 56 weeks, study length 76 weeks): 1.33 mg/kg/day | TD50 (rat, strain Fischer 344, males, i.p., site: skin, lesion: squamous-cell carcinoma, dosed 56 weeks, study length 76 weeks): 0.794 mg/kg/day | TD50 (rat, strain Fischer 344, males, i.p., site: small intestine, lesion: adenocarcinoma, dosed 56 weeks, study length 76 weeks): 2.73 mg/kg/day | TD50 (rat, strain Fischer 344, males, in feed, site: all sites, lesion: leukemia + lymphoma, dosed 98 weeks, study length 104 weeks): 0.514 mg/kg/day | TD50 (rat, strain Fischer 344, males, in feed, site: any site (literature study), lesion: several types, types named in the paper, dosed 55 weeks, study length 59 weeks): 0.217 mg/kg/day | TD50 (rat, strain Fischer 344, males, in feed, site: any site (literature study), lesion: several types, types named in the paper, dosed 98 weeks, study length 104 weeks): 0.152 mg/kg/day | TD50 (rat, strain Fischer 344, males, in feed, site: liver, lesion: adenoma, NOS + angiosarcoma + hepatocellular carcinoma, dosed 98 weeks, study length 104 weeks): 0.25 mg/kg/day | TD50 (rat, strain Fischer 344, males, in feed, site: liver, lesion: adenoma, NOS + hepatocellular carcinoma, dosed 98 weeks, study length 104 weeks): 0.908 mg/kg/day | TD50 (rat, strain Fischer 344, males, in feed, site: liver, lesion: angiosarcoma, dosed 55 weeks, study length 59 weeks): 0.688 mg/kg/day | TD50 (rat, strain Fischer 344, males, in feed, site: liver, lesion: angiosarcoma, dosed 98 weeks, study length 104 weeks): 0.355 mg/kg/day | TD50 (rat, strain Fischer 344, males, in feed, site: liver, lesion: carcinoma, dosed 55 weeks, study length 59 weeks): 0.954 mg/kg/day | TD50 (rat, strain Fischer 344, males, in feed, site: liver, lesion: hepatocellular adenoma + hepatocellular carcinoma + neoplastic nodule, dosed 98 weeks, study length 104 weeks): 7.43 mg/kg/day

CC(=O)Nc1cccc2c1Cc1ccccc1-2
TD50 (rat, strain Buffalo, females, in feed, site: adrenal gland, lesion: carcinoma, dosed 47 weeks, study length 88 weeks): 54.8 mg/kg/day | TD50 (rat, strain Buffalo, females, in feed, site: all sites, lesion: leukemia, indeterminate type, dosed 47 weeks, study length 88 weeks): 54.8 mg/kg/day | TD50 (rat, strain Buffalo, females, in feed, site: ovary, lesion: granulosa-cell carcinoma, dosed 47 weeks, study length 88 weeks): 54.8 mg/kg/day | TD50 (rat, strain Buffalo, females, in feed, site: pituitary gland, lesion: adenoma, dosed 47 weeks, study length 88 weeks): 43.5 mg/kg/day | TD50 (rat, strain Buffalo, females, in feed, site: uterus, lesion: carcinosarcoma, dosed 47 weeks, study length 88 weeks): 54.8 mg/kg/day
